Data as given in patent US11274097B2, “2-(het)aryl-substituted condensed bicyclic heterocycle derivatives as pest control agents” (BAYER CROPSCIENCE AKTIENGESELLSCHAFT, priority 2014, dated 2022).
Read-outs that look alike come from different tables or passages of the source.

What was measured:
Myzus persicae = Myzus persicae spray test (MYZUPE), Chinese cabbage leaf discs; type: in vivo; details: application rate 500 g/ha, after 6 days
Description: Myzus persicae—Spray Test (MYZUPE)
Solvent: 78 parts by weight of acetone • • 1.5 parts by weight of dimethylformamide
Emulsifier: alkylaryl poly glycol ether
(§1) To produce an appropriate active ingredient formulation, 1 part by weight of active ingredient is dissolved using the stated parts by weight of solvent and made up with water containing an emulsifier concentration of 1000 ppm until the desired concentration is attained. To produce further test concentrations, the preparation is diluted with emulsifier-containing water.
Discs of Chinese cabbage leaves (Brassica pekinensis) infested by all stages of the green peach aphid (Myzus persicae) are sprayed with an active ingredient formulation of the desired concentration.
After 6 days, the efficacy in % is determined. 100% means that all the aphids have been killed; 0% means that none of the aphids have been killed.

[1] = log P by HPLC on a reversed-phase column (C 18), EEC Directive 79/831 Annex V.A8; type: physicochemical; details: for LOGP_NEUTRAL: pH 7.8, 0.001 molar aqueous ammonium hydrogencarbonate/acetonitrile; for chromatographic logP: reversed-phase HPLC column (C 18)
Description: The log P values are measured according to EEC Directive 79/831 Annex V.A8 by HPLC (high-performance liquid chromatography) on a reversed-phase column (C 18). Temperature: 55° C. The LC-MS determination in the acidic range is effected at pH 2.7 using 0.1% aqueous formic acid and acetonitrile (contains 0.1% formic acid) as eluents, linear gradient from 10% acetonitrile to 95% acetonitrile. Called log P (HCOOH) in the table. LC-MS determination in the neutral range is effected at pH 7.8 with 0.001 molar aqueous ammonium hydrogencarbonate solution and acetonitrile as eluents; linear gradient from 10% acetonitrile to 95% acetonitrile. Called log P (neutral) in the table. Calibration is effected with unbranched alkan-2-ones (having 3 to 16 carbon atoms) with known log P values (log P values determined on the basis of the retention times by linear interpolation between two successive alkanone s).

Phaedon cochleariae = Phaedon cochleariae spray test (PHAECO); type: in vivo; details: larvae, after 7 days
Description: Phaedon cochleariae—Spray Test (PHAECO)
Solvent: 78.0 parts by weight of acetone • • 1.5 parts by weight of dimethylformamide
Emulsifier: alkylaryl polyglycol ether
as §1
Discs of Chinese cabbage leaves (Brassica pekinensis) are sprayed with an active ingredient formulation of the desired concentration and, after drying, populated with larvae of the mustard beetle (Phaedon cochleariae).
After 7 days, the efficacy in % is determined. 100% means that all the beetle larvae have been killed; 0% means that no beetle larvae have been killed.

[2] = acidic range, pH 2.7, 0.1% aqueous formic acid/acetonitrile, 55° C.
[3] = neutral range, pH 7.8, read-out: log P (neutral)

LOGP_HCOOH [1, 2] | LOGP_NEUTRAL ([1]; neutral range, 55° C.) | chromatographic logP ([1]; acidic range, pH 2.7, 0.1% aqueous formic acid/acetonitrile, 55° C., read-out: LOGP_HCOOH) | chromatographic logP [1, 3] | SMILES | efficacy (Myzus persicae) | efficacy (Phaedon cochleariae; application rate 500 g/ha) | efficacy (Phaedon cochleariae; application rate 100 g/ha)
2.39 | 2.27 |  |  | CCSc1ccc(NC(C)=O)nc1-c1nc2cc(C(F)(F)F)ncc2n1C [Example I-50] | 90% | 100% | 
3.94 | 3.86 |  |  | CCCSc1cc(C(F)(F)F)cnc1-c1nc2cc(C(F)(F)F)ncc2n1C [Example I-31] |  | 100% | 
 | 3.16 | 3.22 | 3.16 | CSc1cc(C(F)(F)F)cnc1-c1nc2cc(C(F)(F)F)ncc2n1C [Example I-3, 3-methyl-2-[3-(methylsulphanyl)-5-(trifluoromethyl)pyridin-2-yl]-6-(trifluoro-methyl)-3H-imidazo[4,5-c]pyridine] |  | 100% | 
2.68 | 2.63 |  |  | CCS(=O)(=O)c1ccc(Cl)cc1-c1nc2cc(C(F)(F)F)ncc2n1C [Example I-38] | 90% | 100% | 
2.41 | 2.36 |  |  | Cn1c(-c2ccc(C(F)(F)F)cc2[S+](C)[O-])nc2cc(C(F)(F)F)ncc21 (centres unmarked) [Example I-30] |  | 83% | 
2.70 | 2.65 |  |  | CSc1cc(F)ccc1-c1nc2cc(C(F)(F)F)ncc2n1C [Example I-4] | 90% | 100% | 
2.67 | 2.64 |  | 2.64 | Cn1c(-c2ncc(C(F)(F)F)cc2S(C)(=O)=O)nc2cc(C(F)(F)F)ncc21 [Example I-36, 3-Methyl-2-[3-(methylsulphonyl)-5-(trifluoromethyl)pyridin-2-yl]-6-(trifluoromethyl)-3H-imidazo[4,5-c]pyridine] |  | 100% | 
2.05 | 1.99 |  |  | CCS(=O)(=O)c1ccc(NC(C)=O)nc1-c1nc2cc(C(F)(F)F)ncc2n1C [Example I-49] | 90% | 100% | 
1.88 | 1.83 |  |  | Cn1c(-c2ccc(F)cc2[S+](C)[O-])nc2cc(C(F)(F)F)ncc21 (centres unmarked) [Example I-12] | 90% | 100% | 
3.80 | 3.73 |  |  | CC(C)Sc1cc(C(F)(F)F)cnc1-c1nc2cc(C(F)(F)F)ncc2n1C [Example I-41] |  | 100% | 
3.04 | 2.93 |  |  | Cn1c(-c2ncccc2SC(F)(F)F)nc2cc(C(F)(F)F)ncc21 [Example I-29] |  | 100% | 
3.30 | 3.26 |  |  | CSc1cc(C(F)(F)F)ccc1-c1nc2cc(C(F)(F)F)ncc2n1C [Example I-5] |  | 100% | 
1.61 | 1.56 |  |  | CCS(=O)(=O)c1cc(C(N)=O)cnc1-c1nc2cc(C(F)(F)F)ncc2n1C [Example I-56] | 90% |  | 
2.94 | 2.87 |  |  | CCSc1ccccc1-c1nc2cc(C(F)(F)F)ncc2n1C [Example I-17] | 90% |  | 83%
2.39 | 2.32 |  |  | CCSc1cccnc1-c1nc2cc(C(F)(F)F)ncc2n1C [Example I-24] | 100% | 100% | 
3.26 | 3.21 |  |  | CC(C)S(=O)(=O)c1cc(C(F)(F)F)cnc1-c1nc2cc(C(F)(F)F)ncc2n1C [Example I-16] |  |  | 
3.84 | 3.73 |  |  | CCS(=O)(=O)c1cc(C(F)(F)F)cnc1-c1nc2cc(-n3cc(C(F)(F)F)cn3)ncc2n1C [Example I-76] |  |  | 

LOGP_HCOOH [1, 2] | LOGP_NEUTRAL ([1]; neutral range, 55° C.) | chromatographic logP ([1]; acidic range, pH 2.7, 0.1% aqueous formic acid/acetonitrile, 55° C., read-out: LOGP_HCOOH) | chromatographic logP [1, 3] | SMILES | efficacy (Myzus persicae) | efficacy (Phaedon cochleariae; application rate 500 g/ha) | efficacy (Phaedon cochleariae; application rate 100 g/ha)
2.72 | 2.67 |  |  | CCS(=O)(=O)CCS(=O)(=O)c1cc(C(F)(F)F)cnc1-c1nc2cc(C(F)(F)F)ncc2n1C [Example I-7] |  |  | 
2.15 | 2.08 |  |  | Cn1c(-c2ccc(Cl)cc2[S+](C)[O-])nc2cc(C(F)(F)F)ncc21 (centres unmarked) [Example I-10] | 100% | 100% | 
2.48 |  |  |  | CC[S+]([O-])c1c(C(F)(F)F)ccnc1-c1nc2cc(C(F)(F)F)ncc2n1C (centres unmarked) [Example I-51] | 90% | 100% | 
2.69 | 2.61 |  |  | CCS(=O)(=O)c1cc(Cl)ccc1-c1nc2cc(C(F)(F)F)ncc2n1C [Example I-43] | 100% | 100% | 
3.37 | 3.32 |  |  | CCCS(=O)(=O)c1cc(C(F)(F)F)cnc1-c1nc2cc(C(F)(F)F)ncc2n1C [Example I-32] |  |  | 
4.38 | 4.41 |  |  | CSc1cc(Cl)ccc1-c1nc2cc(C(F)(F)F)ncc2o1 [Example I-34] |  |  | 
3.08 | 2.97 |  |  | CSc1cc(Cl)ccc1-c1nc2cc(C(F)(F)F)ncc2n1C [Example I-25] |  | 100% | 
2.17 | 2.15 |  |  | CCS(=O)(=O)c1c(Cl)cccc1-c1nc2cc(C(F)(F)F)ncc2n1C [Example I-62] |  |  | 
2.94 | 2.84 |  |  | CCS(=O)(=O)c1cc(C(F)(F)F)cnc1-c1nc2cc(-n3cnc(C(F)(F)F)c3)ncc2n1C [Example I-75] |  |  | 
2.53 |  |  |  | CCS(=O)(=O)c1ccc(OC)nc1-c1nc2cc(C(F)(F)F)ncc2n1C [Example I-45] | 90% | 100% | 
3.12 | 3.01 |  |  | CCSc1cc(C(F)(F)F)cnc1-c1nc2cc(Cl)ncc2n1C [Example I-55] |  | 100% | 
2.25 | 2.20 |  |  | COc1ccc(S(C)(=O)=O)c(-c2nc3cc(C(F)(F)F)ncc3n2C)n1 [Example I-73] |  | 100% | 
3.86 | 3.77 |  |  | CSc1cc(Cl)ccc1-c1nc2nc(C(F)(F)F)ncc2o1 [Example I-1] |  |  | 
4.02 | 3.96 |  |  | CCSCCSc1cc(C(F)(F)F)cnc1-c1nc2cc(C(F)(F)F)ncc2n1C [Example I-23] | 100% |  | 
2.32 | 2.26 |  |  | CCS(=O)(=O)c1cc(C#N)cnc1-c1nc2cc(C(F)(F)F)ncc2n1C [Example I-72] |  |  | 
3.15 | 3.10 |  |  | FC(F)(F)c1cc2nc(-c3ccccc3SC3COC3)oc2cn1 [Example I-40] |  |  | 
 |  |  | 2.96 | Cn1c(-c2ncc(C(F)(F)F)cc2Cl)nc2cc(C(F)(F)F)ncc21 [IX-01, 2-[3-chloro-5-(trifluoromethyl)pyridin-2-yl]-3-methyl-6-(trifluoromethyl)-3H-imidazo[4,5-c]pyridine] |  |  | 

SMILES | LOGP_HCOOH [1, 2] | LOGP_NEUTRAL ([1]; neutral range, 55° C.) | chromatographic logP ([1]; acidic range, pH 2.7, 0.1% aqueous formic acid/acetonitrile, 55° C., read-out: LOGP_HCOOH) | chromatographic logP [1, 3] | efficacy (Myzus persicae) | efficacy (Phaedon cochleariae; application rate 500 g/ha) | efficacy (Phaedon cochleariae; application rate 100 g/ha)
CCS(=O)(=O)c1cc(C(F)(F)F)cnc1-c1nc2cc(Cl)ncc2n1C [Example I-52] | 2.61 | 2.51 |  |  | 100% | 100% | 
CCSc1cc(C(N)=O)cnc1-c1nc2cc(C(F)(F)F)ncc2n1C [Example I-60] | 1.77 | 1.76 |  |  |  |  | 
